Measurements published in the supplement of paper PMC8617591.

What was measured:
[1] = tested on: Mycobacterium tuberculosis Erdman (autoluminescent); experiment: GRinf, maximum normalised growth rate inhibition (three-drug combination) (unitless (-1 to 1)); higher = less effect (negative = killing)
Protocol: (§1)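 DiaMOND equipotent three-drug combination dose responses (10 doses, 1.5- or 2-fold spacing, centred on IC90) against autoluminescent M. tuberculosis Erdman in 8 in vitro models. Read-out is OD600, or luminescence for the intracellular and dormancy models, normalised to untreated wells. Hill-fit Einf, AUC25 and GRinf are potency metrics; FIC50 and FIC90 are total Loewe fractional inhibitory concentrations as log2 (negative = synergy).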

[2] = tested on: Mycobacterium tuberculosis Erdman (autoluminescent); experiment: Einf, fitted maximum growth inhibition of three-drug combination (fraction); higher = stronger maximal inhibition
Protocol: as §1

[3] = tested on: Mycobacterium tuberculosis Erdman (autoluminescent); experiment: total FIC90 (Loewe) at 90% inhibition, three-drug combination (log2); higher = more antagonistic
Protocol: as §1

[4] = tested on: Mycobacterium tuberculosis Erdman (autoluminescent); experiment: AUC25, normalised area under dose response up to IC25 (three-drug combination) (fraction (0-1)); higher = more potent at low dose
Protocol: as §1

[5] = tested on: Mycobacterium tuberculosis Erdman (autoluminescent); experiment: total FIC50 (Loewe) at 50% inhibition, three-drug combination (log2); higher = more antagonistic
Protocol: as §1

[6] = in vitro model: acidic pH 5.7, time point: constant (~7 days, model-specific)
[7] = in vitro model: acidic pH 5.7, time point: terminal (~4-5 doublings, model-specific)
[8] = in vitro model: butyrate, time point: constant (~7 days, model-specific)
[9] = in vitro model: butyrate, time point: terminal (~4-5 doublings, model-specific)
[10] = in vitro model: cholesterol 0.05 mM, time point: constant (~7 days, model-specific)
[11] = in vitro model: cholesterol 0.05 mM, time point: terminal (~4-5 doublings, model-specific)
[12] = in vitro model: cholesterol-high 0.2 mM, time point: constant (~7 days, model-specific)
[13] = in vitro model: cholesterol-high 0.2 mM, time point: terminal (~4-5 doublings, model-specific)
[14] = in vitro model: dormancy (butyrate + nitrate, low O2), time point: constant (~7 days, model-specific)
[15] = in vitro model: dormancy (butyrate + nitrate, low O2), time point: terminal (~4-5 doublings, model-specific)
[16] = in vitro model: intracellular J774, time point: constant = terminal
[17] = in vitro model: standard 7H9 glycerol, time point: constant = terminal
[18] = in vitro model: valerate, time point: constant (~7 days, model-specific)
[19] = in vitro model: valerate, time point: terminal (~4-5 doublings, model-specific)

COc1c(N2C[C@@H]3CCCN[C@@H]3C2)c(F)cc2c(=O)c(C(=O)O)cn(C3CC3)c12 [moxifloxacin] + NC(=O)c1cnccn1 [pyrazinamide] + CO[C@H]1/C=C/O[C@@]2(C)Oc3c(C)c(O)c4c(O)c(c(/C=N/N5CCN(C6CCCC6)CC5)c(O)c4c3C2=O)NC(=O)/C(C)=C\C=C\[C@H](C)[C@H](O)[C@@H](C)[C@@H](O)[C@@H](C)[C@H](OC(C)=O)[C@@H]1C [rifapentine]
GRinf [1, 6]: -0.164 | GRinf [1, 7]: -0.192 | GRinf [1, 8]: 0.0713 | GRinf [1, 9]: 0.0339 | GRinf [1, 10]: -0.407 | GRinf [1, 11]: -0.171 | GRinf [1, 12]: -0.459 | GRinf [1, 13]: -0.837 | GRinf [1, 14]: 0.214 | GRinf [1, 15]: -0.13 | GRinf [1, 16]: -0.65 | GRinf [1, 17]: 0.0649 | GRinf [1, 18]: 0.162 | GRinf [1, 19]: 0.0611 | Einf [2, 6]: 0.916 | Einf [2, 7]: 0.996 | Einf [2, 8]: 0.907 | Einf [2, 9]: 0.961 | Einf [2, 10]: 0.617 | Einf [2, 11]: 0.913 | Einf [2, 12]: 0.947 | Einf [2, 13]: 1 | Einf [2, 14]: 0.862 | Einf [2, 15]: 0.979 | Einf [2, 16]: 0.968 | Einf [2, 17]: 0.882 | Einf [2, 18]: 0.81 | Einf [2, 19]: 0.929 | total FIC90 [3, 7]: -0.209 | total FIC90 [3, 8]: 0.846 | total FIC90 [3, 9]: 1.19 | total FIC90 [3, 13]: 1.05 | total FIC90 [3, 14]: 0.265 | total FIC90 [3, 15]: 1.04 | total FIC90 [3, 16]: 0.713 | total FIC90 [3, 19]: 0.693 | AUC25 [4, 6]: 0.0979 | AUC25 [4, 7]: 0.0717 | AUC25 [4, 8]: 0.118 | AUC25 [4, 9]: 0.0899 | AUC25 [4, 10]: 0.116 | AUC25 [4, 11]: 0.0984 | AUC25 [4, 12]: 0.0917 | AUC25 [4, 13]: 0.0805 | AUC25 [4, 14]: 0.0716 | AUC25 [4, 15]: 0.07 | AUC25 [4, 17]: 0.0577 | AUC25 [4, 18]: 0.0789 | AUC25 [4, 19]: 0.0473 | total FIC50 [5, 6]: 0.396 | total FIC50 [5, 7]: 0.991 | total FIC50 [5, 8]: 0.589 | total FIC50 [5, 9]: 0.781 | total FIC50 [5, 11]: 1.31 | total FIC50 [5, 12]: 0.921 | total FIC50 [5, 13]: 1.23 | total FIC50 [5, 14]: 0.262 | total FIC50 [5, 15]: 0.473 | total FIC50 [5, 18]: 0.849 | total FIC50 [5, 19]: 0.778

CC[C@@H](CO)NCCN[C@@H](CC)CO [ethambutol] + CC(=O)NC[C@H]1CN(c2ccc(N3CCOCC3)c(F)c2)C(=O)O1 [linezolid] + CO[C@H]1/C=C/O[C@@]2(C)Oc3c(C)c(O)c4c(O)c(c(/C=N/N5CCN(C)CC5)c(O)c4c3C2=O)NC(=O)/C(C)=C\C=C\[C@H](C)[C@H](O)[C@@H](C)[C@@H](O)[C@@H](C)[C@H](OC(C)=O)[C@@H]1C [rifampicin]
GRinf [1, 6]: -0.171 | GRinf [1, 7]: -0.121 | GRinf [1, 8]: 0.0409 | GRinf [1, 9]: 0.0366 | GRinf [1, 10]: -0.271 | GRinf [1, 11]: -0.414 | GRinf [1, 12]: -0.549 | GRinf [1, 13]: -0.743 | GRinf [1, 14]: 0.521 | GRinf [1, 15]: -0.0529 | GRinf [1, 16]: -0.326 | GRinf [1, 17]: 0.107 | GRinf [1, 18]: 0.0331 | GRinf [1, 19]: 0.0654 | Einf [2, 6]: 0.895 | Einf [2, 7]: 0.972 | Einf [2, 8]: 0.907 | Einf [2, 9]: 0.952 | Einf [2, 10]: 0.704 | Einf [2, 11]: 0.945 | Einf [2, 12]: 0.971 | Einf [2, 13]: 1 | Einf [2, 14]: 0.805 | Einf [2, 15]: 0.979 | Einf [2, 16]: 0.96 | Einf [2, 17]: 0.9 | Einf [2, 18]: 0.858 | Einf [2, 19]: 0.921 | total FIC90 [3, 7]: 0.219 | total FIC90 [3, 9]: -0.801 | total FIC90 [3, 13]: 0.577 | total FIC90 [3, 15]: -0.712 | total FIC90 [3, 16]: -2.16 | total FIC90 [3, 19]: -0.279 | AUC25 [4, 6]: 0.107 | AUC25 [4, 7]: 0.0468 | AUC25 [4, 8]: 0.0696 | AUC25 [4, 9]: 0.0538 | AUC25 [4, 10]: 0.163 | AUC25 [4, 11]: 0.142 | AUC25 [4, 12]: 0.0878 | AUC25 [4, 13]: 0.0943 | AUC25 [4, 14]: 0.086 | AUC25 [4, 15]: 0.0341 | AUC25 [4, 17]: 0.0613 | AUC25 [4, 18]: 0.0592 | AUC25 [4, 19]: 0.0352 | total FIC50 [5, 6]: 0.267 | total FIC50 [5, 7]: 0.894 | total FIC50 [5, 8]: 0.215 | total FIC50 [5, 9]: 0.088 | total FIC50 [5, 10]: -0.838 | total FIC50 [5, 11]: -1.2 | total FIC50 [5, 12]: 0.326 | total FIC50 [5, 13]: 0.388 | total FIC50 [5, 14]: 0.204 | total FIC50 [5, 15]: 0.514 | total FIC50 [5, 17]: 0.293 | total FIC50 [5, 18]: 0.437 | total FIC50 [5, 19]: 0.622

COc1c(N2C[C@@H]3CCCN[C@@H]3C2)c(F)cc2c(=O)c(C(=O)O)cn(C3CC3)c12 [moxifloxacin] + O=[N+]([O-])c1cn2c(n1)OC[C@@H](OCc1ccc(OC(F)(F)F)cc1)C2 [pretomanid] + CO[C@H]1/C=C/O[C@@]2(C)Oc3c(C)c(O)c4c(O)c(c(/C=N/N5CCN(C6CCCC6)CC5)c(O)c4c3C2=O)NC(=O)/C(C)=C\C=C\[C@H](C)[C@H](O)[C@@H](C)[C@@H](O)[C@@H](C)[C@H](OC(C)=O)[C@@H]1C [rifapentine]
GRinf [1, 6]: -0.139 | GRinf [1, 7]: -0.106 | GRinf [1, 8]: -0.00663 | GRinf [1, 9]: -0.00653 | GRinf [1, 10]: -0.172 | GRinf [1, 11]: -0.186 | GRinf [1, 12]: -0.142 | GRinf [1, 13]: -0.672 | GRinf [1, 14]: 0.213 | GRinf [1, 15]: -0.128 | GRinf [1, 16]: -0.179 | GRinf [1, 17]: -0.0296 | GRinf [1, 18]: 0.0703 | GRinf [1, 19]: 0.0683 | Einf [2, 6]: 0.874 | Einf [2, 7]: 0.971 | Einf [2, 8]: 0.918 | Einf [2, 9]: 0.963 | Einf [2, 10]: 0.713 | Einf [2, 11]: 0.89 | Einf [2, 12]: 0.877 | Einf [2, 13]: 0.988 | Einf [2, 14]: 0.89 | Einf [2, 15]: 0.98 | Einf [2, 16]: 0.964 | Einf [2, 17]: 0.928 | Einf [2, 18]: 0.89 | Einf [2, 19]: 0.941 | total FIC90 [3, 7]: 0.554 | total FIC90 [3, 8]: 0.722 | total FIC90 [3, 9]: 0.784 | total FIC90 [3, 11]: 1.21 | total FIC90 [3, 12]: 0.511 | total FIC90 [3, 13]: 0.705 | total FIC90 [3, 14]: 0.639 | total FIC90 [3, 15]: 1.14 | total FIC90 [3, 16]: 0.252 | total FIC90 [3, 17]: 0.207 | total FIC90 [3, 19]: 0.879 | AUC25 [4, 6]: 0.0693 | AUC25 [4, 7]: 0.0354 | AUC25 [4, 8]: 0.099 | AUC25 [4, 9]: 0.0765 | AUC25 [4, 10]: 0.111 | AUC25 [4, 11]: 0.0851 | AUC25 [4, 12]: 0.0549 | AUC25 [4, 13]: 0.04 | AUC25 [4, 14]: 0.0589 | AUC25 [4, 15]: 0.0483 | AUC25 [4, 17]: 0.0568 | AUC25 [4, 18]: 0.116 | AUC25 [4, 19]: 0.0723 | total FIC50 [5, 6]: 0.708 | total FIC50 [5, 7]: 0.952 | total FIC50 [5, 8]: 0.501 | total FIC50 [5, 9]: 0.582 | total FIC50 [5, 10]: 0.593 | total FIC50 [5, 11]: 1.01 | total FIC50 [5, 12]: 0.887 | total FIC50 [5, 13]: 1.15 | total FIC50 [5, 14]: 0.874 | total FIC50 [5, 15]: 1.17 | total FIC50 [5, 17]: 0.55 | total FIC50 [5, 18]: 0.213 | total FIC50 [5, 19]: 0.631
